From patent publication US20240327372A1, “PREPARATION OF PHENE[…] […] STEREOISOMERS THEREOF AND PRECURSORS THEREOF” (priority 2022, published 2024)

How the values were obtained:
hERG = hERG (Homo sapiens (Human), UniProt Q12809); assay: hERG Potassium Channel Assay, Qube APC; assay type: cell-based; details: Antagonist mode, test compound
Experimental: Where presented, IC50 values were determined by a non-linear, least squares regression analysis.
Recombinant HEK-293 cells stably transfected with human Nav1.5 cDNA, recombinant HEK293 cell line expressing the human Cav1.2 (L-type voltage gated calcium channel, hCav1.2 α1C/β2a/α2δ1, and recombinant CHO-K1 cells stably transfected with human hERG cDNA were used separately in each of these assays.
hERG Potassium Channel Assay—Qube APC After whole cell configuration is achieved, the cells are held at −80 mV. Cells are held at this voltage for 50 ms to measure the leak current, which is subtracted from the tail current on-line. The cells are depolarized to +40 mV for 500 ms and then to −80 mV over a 100 ms ramp to elicit the hERG tail current. This paradigm is delivered once every 8 s to monitor the current amplitude.

[1] = biological target: norepinephrine transporter (NET); assay: Competition radioligand binding, [3H]Nisoxetine, rat brain membranes; details: for IC50 / Ki: NE transporter; for Ki: Cheng-Prusoff
Description: (§1) Rat brain (Sprague Dawley, 200-250 g) synaptosomes were isolated from midbrain and hindbrain for serotonin transporter assays, striatum for dopamine transporter assays, and hippocampus plus overlying occipital cortex for norepinephrine transporter assays. Radioligands used were: [^3H]Citalopram 81.4 Ci/mmol (PerkinElmer NET1039250UC; Lot No. 2960876). [^3H]WIN35428 82.8 Ci/mmol (PerkinElmer NET1033250UC; Lot No. 2891473). [^3H]Nisoxetine 79.2 Ci/mmol (PerkinElmer NET1084250UC; Lot No. 2970324). Non-specific compounds used were: Citalopram (Tocris Bioscience 1427). JHW007 (Tocris Bioscience 4351). Nomifensine (Abcam ab146004). Test Compounds for the study were: racemic methylone HCl; (R)-methylone HCl; (S)-methylone HCl.
(§2) For membrane preparations, rat brains were dissected, tissue was added to ice-cold lysis buffer (50 mM Tris HCl; 5 mM MgCl2; 5 mM EDTA; protease inhibitor cocktail) and homogenized. The homogenate was centrifuged at 100×g for 2 minutes and the supernatant divided into polypropylene Eppendorf tubes. The supernatants were centrifuged at 17,000×g for 10 minutes at 4° C. to re-pellet the cell lysate. The pellet was resuspended in fresh wash buffer (50 mM Tris-HCl; 5 mM MgCl2; 5 mM EDTA) and centrifuged a third time at 17,000×g for 10 minutes at 4° C. The pellet was resuspended in wash buffer containing 10% sucrose as a cryoprotectant, divided into aliquots (0.3 mL) and stored at −80° C. A sample of the homogenate was analyzed for protein content using the MERCK® BCA assay. On the day of the assay, the membrane preparation was thawed and the pellet resuspended in final assay buffer.
(§3) Competition binding assays were carried out in 96-well polypropylene plates in a final volume of 250 μL per well. To each well was added 150 μL membranes, 50 μL of test compound, non-specific compound or buffer, and 50 μL radioligand solution in buffer. The plate was incubated at 30° C. for 90 minutes with gentle agitation. The incubation was stopped by vacuum filtration onto presoaked (wash buffer with PEI) GF/C filters using a 96-well FILTERMATE™ harvester, followed by 5 washes with ice-cold wash buffer. Filters were then dried under a warm air stream, sealed in polyethylene, scintillation cocktail added, and the radioactivity counted in a WALLAC® TriLux 1450 MicroBeta counter. For each concentration of drug, non-specific binding was subtracted from total binding to give specific binding. Data was fitted using the non-linear curve fitting routines in PRISM® (Graphpad Software Inc) to determine IC50. Ki was subsequently calculated using the ChengPrusoff equation.

[2] = test system: rat forced swim test (FST); assay: Rat forced swim test (FST); assay type: in vivo; details: single dose 10 mg/kg IP, 30 min before testing
Experimental: All FST studies are performed and scored by an experimenter blind to treatment group and according to standard protocols. Briefly, rats are placed in a circular plexiglass container filled with water. Water temperature is maintained at 22-25° C. and changed for every animal. Day 1 (Training) consists of a 15 min acclimation trial, and Day 2 (Testing, 24 h later) consists of the 5 min test. A time sampling procedure is employed where animals are observed every 5 seconds for the duration of the test session (60 counts or 5 minutes) and scored for immobility (defined as the failure to struggle), swimming (defined as a circular movement around the tank), or climbing (defined as an upwards escape behavior). Data are expressed as the percent of the testing session (e.g., the number of immobility counts divided by 60). A p-value less than 0.05 indicates statistical significance after typical statistical analyses (e.g., unpaired t-test or ANOVA).
To determine that the prodrug and/or enantiomer has an antidepressant-like effect and to compare it to methylone, rats are treated with each compound 30 min prior to testing. Additional tests are run 24, 72, 168 hours post-dose or longer.
Racemic methylone (10 mg/kg, IP) has a maximal antidepressant-like effect in the rat forced swim test (FST), reducing immobility by nearly 100% compared to vehicle treated controls. To determine whether one enantiomer of methylone could mimic the robust antidepressant-like effect of racemic methylone, rats were treated with a single dose of racemic methylone, (R)-methylone, (S)-methylone (all 10 mg/kg, IP) or vehicle 30 min before testing in the FST. […] Therefore, all of the activity of methylone appears to be driven by the activity of one enantiomer ((S)-methylone).

DAT = DAT (Rattus norvegicus (Rat), UniProt P23977); assay: DA release study; assay type: biochemical
[3] = biological target: serotonin transporter (SERT) (Rattus norvegicus (Rat), UniProt P31652); assay: Competition radioligand binding, [3H]Citalopram, rat brain membranes; details: for IC50 / Ki: 5-HT transporter; for Ki: Cheng-Prusoff
Description: as §1, §2, §3

[4] = biological target: dopamine transporter (DAT) (Rattus norvegicus (Rat), UniProt P23977); assay: Competition radioligand binding, [3H]WIN35428, rat brain membranes; details: for IC50 / Ki: DA transporter; for Ki: Cheng-Prusoff
Description: as §1, §2, §3

Chain of hERG (Q12809 whole entry): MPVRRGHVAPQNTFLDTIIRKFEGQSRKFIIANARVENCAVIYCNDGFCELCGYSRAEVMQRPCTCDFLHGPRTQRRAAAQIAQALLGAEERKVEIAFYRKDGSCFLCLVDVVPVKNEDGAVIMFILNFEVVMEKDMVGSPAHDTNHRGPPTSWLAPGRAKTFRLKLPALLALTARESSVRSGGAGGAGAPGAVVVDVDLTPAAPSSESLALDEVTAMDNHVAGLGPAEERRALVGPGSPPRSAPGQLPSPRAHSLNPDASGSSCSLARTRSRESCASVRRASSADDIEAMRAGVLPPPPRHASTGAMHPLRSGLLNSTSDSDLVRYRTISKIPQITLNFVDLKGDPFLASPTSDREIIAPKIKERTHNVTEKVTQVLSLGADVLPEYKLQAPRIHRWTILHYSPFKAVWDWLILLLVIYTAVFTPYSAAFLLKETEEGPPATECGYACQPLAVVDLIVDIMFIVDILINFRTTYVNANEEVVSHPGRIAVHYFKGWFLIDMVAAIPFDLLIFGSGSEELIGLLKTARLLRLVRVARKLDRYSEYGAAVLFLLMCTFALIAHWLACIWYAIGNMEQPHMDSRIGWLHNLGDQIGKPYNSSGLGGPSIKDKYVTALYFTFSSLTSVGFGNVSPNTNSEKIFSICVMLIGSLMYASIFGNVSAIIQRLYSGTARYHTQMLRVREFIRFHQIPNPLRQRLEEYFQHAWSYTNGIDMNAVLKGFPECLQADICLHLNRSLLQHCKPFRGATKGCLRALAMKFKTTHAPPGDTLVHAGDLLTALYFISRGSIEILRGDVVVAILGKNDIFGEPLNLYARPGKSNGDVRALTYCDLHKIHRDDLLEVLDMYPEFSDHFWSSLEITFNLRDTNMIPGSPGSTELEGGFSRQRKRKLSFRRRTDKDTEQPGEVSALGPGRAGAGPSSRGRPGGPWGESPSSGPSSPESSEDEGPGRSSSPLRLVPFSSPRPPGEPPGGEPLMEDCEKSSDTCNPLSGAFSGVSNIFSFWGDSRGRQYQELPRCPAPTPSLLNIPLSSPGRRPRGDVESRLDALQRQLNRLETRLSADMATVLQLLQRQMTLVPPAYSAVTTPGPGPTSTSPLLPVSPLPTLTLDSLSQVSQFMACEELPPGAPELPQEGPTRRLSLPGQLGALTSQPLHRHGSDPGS

SMILES | Estimated IC50 (hERG) | IC50 [1] [µM] | Ki [1] [µM] | Potency relative to racemic methylone ([1]; NET binding) | Antidepressant-like effect in the FST [2] | EC50 (DAT) [µM] | IC50 [3] [µM] | Ki [3] [µM] | IC50 [4] [µM] | Ki [4] [µM] | Potency relative to racemic methylone ([3]; SERT binding) | Potency relative to racemic methylone ([4]; DAT binding)
CN[C@@H](C)C(=O)c1ccc2c(c1)OCO2 [(S)-methylone] | N/C (N/C indicates observed mean inhibition was <25%) | 7.12 | 3.37 | nearly two-fold less potent | mimicked the rapid and robust antidepressant-like effect of racemic methylone | 3.28 | 6.52 | 3.95 | 8.34 | 4.14 |  | 
CN[C@H](C)C(=O)c1ccc2c(c1)OCO2 [(R)-methylone] | N/C (N/C indicates observed mean inhibition was <25%) | 4.67 | 2.19 |  | no effect | 4.77 | 34.7 | 21.1 | 24.7 | 12.3 | approximately three-fold less potent | approximately three-fold less potent
